The source made the active and inactive calls. The rule behind the calls is not given here.
What was measured:
[1] = Drug level treated with kaempferol after 4 hrs by LC/Q Tof-MS/MS analysis; assay type: physicochemical
[2] = target: Amyloid-beta precursor protein (Homo sapiens) (UniProt P05067); experiment: Inhibition of nucleation phase of HFIP-treated 15N-labelled wild type Amyloid beta (1 to 42) (unknown origin) assessed as time required for nucleation at 50 uM by Thioflavin-T fluorescence assay in presence of fibril seed
Sequence of Amyloid-beta precursor protein (Homo sapiens) (P05067 whole entry): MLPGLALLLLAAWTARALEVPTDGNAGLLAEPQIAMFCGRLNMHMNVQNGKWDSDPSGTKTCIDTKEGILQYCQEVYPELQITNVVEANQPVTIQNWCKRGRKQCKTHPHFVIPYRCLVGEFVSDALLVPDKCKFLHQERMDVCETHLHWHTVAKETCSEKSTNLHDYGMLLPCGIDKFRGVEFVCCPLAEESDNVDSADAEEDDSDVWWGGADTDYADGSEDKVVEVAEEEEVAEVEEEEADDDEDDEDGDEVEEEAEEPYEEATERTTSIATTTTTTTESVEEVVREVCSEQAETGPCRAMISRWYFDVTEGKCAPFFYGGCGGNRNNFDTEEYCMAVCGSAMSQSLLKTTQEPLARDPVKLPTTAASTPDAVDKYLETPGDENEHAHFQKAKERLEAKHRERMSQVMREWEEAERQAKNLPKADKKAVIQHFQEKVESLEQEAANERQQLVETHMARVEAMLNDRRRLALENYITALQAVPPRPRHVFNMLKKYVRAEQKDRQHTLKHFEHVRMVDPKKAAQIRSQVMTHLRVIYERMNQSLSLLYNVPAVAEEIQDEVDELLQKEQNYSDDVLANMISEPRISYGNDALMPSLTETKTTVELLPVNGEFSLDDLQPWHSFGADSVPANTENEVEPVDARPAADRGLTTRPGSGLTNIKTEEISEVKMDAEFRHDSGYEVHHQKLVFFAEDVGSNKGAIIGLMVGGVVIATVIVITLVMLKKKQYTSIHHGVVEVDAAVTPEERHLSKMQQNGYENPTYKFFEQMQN

[3] = target: Amyloid-beta precursor protein (Homo sapiens) (UniProt P05067); experiment: Inhibition of wild type amyloid beta (1 to 42) (unknown origin) aggregation at 50 uM by Thioflavin-T fluorescence assay
[4] = target: Amyloid-beta precursor protein (Homo sapiens) (UniProt P05067); experiment: Inhibition of wild type Amyloid beta (1 to 42) (unknown origin) aggregation at 50 to 100 uM under anaerobic condition after 5 days by Thioflavin-T fluorescence assay
[5] = Drug degradation assessed as autoxidation at 50 uM under argon atmosphere at 37 degC after 2 to 48 hrs by UV-visible spectrophotometric analysis in presence of wild type Amyloid beta (1 to 42) (unknown origin); assay type: physicochemical
[6] = Drug degradation after 48 hrs by HPLC analysis; assay type: physicochemical; conditions: read-out: Drug degradation
[7] = target: Amyloid-beta precursor protein (Homo sapiens) (UniProt P05067); conditions: 500 uM
Description: Inhibition of elongation phase of HFIP-treated 15N-labelled wild type Amyloid beta (1 to 42) (unknown origin) at 500 uM by Thioflavin-T fluorescence assay in presence of fibril seed

[8] = Drug metabolism assessed as 2,4,6-trihydroxybenzaldehyde formation after 4 hrs by LC/Q Tof-MS/MS analysis; assay type: physicochemical
[9] = target: Amyloid-beta precursor protein (Homo sapiens) (UniProt P05067); experiment: Inhibition of wild type Amyloid beta (1 to 42) (unknown origin) aggregation at 50 uM under ambient condition by Thioflavin-T fluorescence assay
[10] = Drug degradation assessed as autoxidation at 50 uM at 37 degC after 2 to 48 hrs by UV-visible spectrophotometric analysis in presence of wild type Amyloid beta (1 to 42) (unknown origin); assay type: physicochemical
[11] = Drug degradation assessed as autoxidation at 500 uM at 4 degC after 1 hr by UV-visible spectrophotometric analysis in presence of wild type Amyloid beta (1 to 42) (unknown origin) relative to morin and datiscetin; assay type: physicochemical; conditions: read-out: Drug degradation
[12] = Drug degradation assessed as autoxidation at 500 uM at 4 degC after 4 hrs by UV-visible spectrophotometric analysis in presence of wild type Amyloid beta (1 to 42) (unknown origin); assay type: physicochemical
[13] = target: Amyloid-beta precursor protein (Homo sapiens) (UniProt P05067); experiment: Inhibition of Amyloid beta (1 to 42) 13,14 A2 mutant (unknown origin) aggregation at 50 uM by Thioflavin-T fluorescence assay
[14] = target: Amyloid-beta precursor protein (Homo sapiens) (UniProt P05067); experiment: Inhibition of elongation phase of HFIP-treated 15N-labelled wild type Amyloid beta (1 to 42) (unknown origin) at 50 uM by Thioflavin-T fluorescence assay in presence of fibril seed
[15] = Stability of the compound assessed as compound remaining after 48 hrs by HPLC analysis; assay type: physicochemical; conditions: read-out: Stability
[16] = target: Amyloid-beta precursor protein (Homo sapiens) (UniProt P05067); conditions: 50 uM
Description: Inhibition of wild type Amyloid beta (1 to 42) (unknown origin) aggregation at 50 uM after 48 hrs by TEM analysis

Drug metabolism [1] | TIME [2] | inhibition [3] | SMILES | also measured
metabolite_detected | 3 h | Active | O=C1Oc2cc(O)cc(O)c2C1=O | –
metabolite_detected | 3 h | Active | O=C(O)C(=O)c1ccc(O)cc1 | –
– | 3 h | – | O=c1c(O)c(-c2ccc(O)cc2)oc2cc(O)cc(O)c12 [KAEMPFEROL] | inhibition [4]: Active; Stability [5]: Stable; degraded at 48 h [6]: > 80%; inhibition [7]: Active; Drug metabolism [8]: metabolite_detected; inhibition [9]: Active; Stability [10]: Unstable; degraded at 1 h, 500 µM [11]: 70%
metabolite_detected | 3 h | Active | O=Cc1c(O)cc(O)cc1O [PHLOROGLUCINALDEHYDE] | –
– | 10 h | – | O=c1c(O)c(-c2ccc(O)cc2O)oc2cc(O)cc(O)c12 [MORIN] | inhibition [4]: Active; Stability [5]: Stable; Stability [12]: Stable; inhibition [13]: Active; inhibition [14]: Active; remaining at 48 h [15]: > 80%; inhibition [9]: Active
– | 6 h | – | O=c1c(O)c(-c2ccccc2O)oc2cc(O)cc(O)c12 [DATISCETIN] | inhibition [4]: Active; inhibition [16]: Active; Stability [5]: Stable; Stability [12]: Stable; inhibition [13]: Active; inhibition [14]: Active; remaining at 48 h [15]: > 80%; inhibition [9]: Active
metabolite_detected | 3 h | Active | O=C(O)C(=O)c1c(O)cc(O)cc1O | –
metabolite_detected | 3 h | Active | O=C1C(=O)C(O)(c2ccc(O)cc2)Oc2cc(O)cc(O)c21 (stereo not drawn) | –
metabolite_detected | 3 h | Active | O=C(O)c1ccc(O)cc1 [PARABEN] | –
metabolite_detected | 3 h | Active | O=c1cc(-c2ccc(O)cc2)oc2cc(O)cc(O)c12 [APIGENIN] | –
metabolite_detected | 3 h | Active | O=C(O)c1c(O)cc(O)cc1O | –

SMILES | Drug metabolism [1] | TIME [2] | inhibition [3] | also measured
O=c1c(OOc2c(-c3ccc(O)cc3)oc3cc(O)cc(O)c3c2=O)c(-c2ccc(O)cc2)oc2cc(O)cc(O)c12 | metabolite_detected | 3 h | Active | –

— ChEMBL document CHEMBL3745699, “Structural insights into mechanisms for inhibiting amyloid β42 aggregation by non-catechol-type flavonoids” (Bioorg Med Chem, 2016)
